Measurements published in ChEMBL document CHEMBL1157646, “Melanogenesis inhibitors from the desert plant Anastatica hierochuntica in B16 melanoma cells” (Bioorg Med Chem, 2010).
The source made the active and inactive calls. The rule behind the calls is not given here.

How the values were obtained:
[1] = cells; conditions: Mus musculus, B16-4A5, 72 h, read-out: INH
Description: Inhibition of theophylline-stimulated melanogenesis in mouse B16-4A5 cells at 30 uM after 72 hrs

[2] = Toxicity in mouse B16-4A5 cells assessed as inhibition of cell proliferation at 30 uM in presence of 1 mM theophylline after 72 hrs by WST8 dye reduction assay; type: cell-based
[3] = molecular target: T1, Tyrosinase (Agaricus bisporus) (UniProt O42713); experiment: Inhibition of mushroom tyrosinase assessed as inhibition of melanin production from dopachrome by autoxidation at 100 uM
T1 sequence (whole entry): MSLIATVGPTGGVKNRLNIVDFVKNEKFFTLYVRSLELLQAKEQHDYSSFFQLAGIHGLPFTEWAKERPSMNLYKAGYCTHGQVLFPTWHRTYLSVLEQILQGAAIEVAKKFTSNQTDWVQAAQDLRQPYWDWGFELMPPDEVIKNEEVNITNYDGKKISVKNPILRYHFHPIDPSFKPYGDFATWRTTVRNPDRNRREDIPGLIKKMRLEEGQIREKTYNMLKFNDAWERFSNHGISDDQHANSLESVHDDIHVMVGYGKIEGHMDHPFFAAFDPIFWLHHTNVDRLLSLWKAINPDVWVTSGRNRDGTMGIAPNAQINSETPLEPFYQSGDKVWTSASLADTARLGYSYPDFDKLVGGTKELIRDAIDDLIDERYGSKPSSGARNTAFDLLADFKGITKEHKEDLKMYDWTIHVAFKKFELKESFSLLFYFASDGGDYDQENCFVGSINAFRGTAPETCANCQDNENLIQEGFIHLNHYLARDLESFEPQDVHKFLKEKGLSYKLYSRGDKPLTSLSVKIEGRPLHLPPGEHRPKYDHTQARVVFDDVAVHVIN

[4] = cells; conditions: Mus musculus, B16-4A5, 72 h, read-out: INH; remark: listed apart in the source
Description: Inhibition of theophylline-stimulated melanogenesis in mouse B16-4A5 cells at 10 uM after 72 hrs

[5] = cells; conditions: Mus musculus, B16-4A5, 72 h, read-out: INH; remark: listed apart in the source
Description: Inhibition of theophylline-stimulated melanogenesis in mouse B16-4A5 cells at 3 uM after 72 hrs

[6] = cells; conditions: Mus musculus, B16-4A5, 72 h, read-out: INH; remark: listed apart in the source
Description: Inhibition of theophylline-stimulated melanogenesis in mouse B16-4A5 cells at 1 uM after 72 hrs

[7] = Toxicity in mouse B16-4A5 cells assessed as inhibition of cell proliferation at 10 uM in presence of 1 mM theophylline after 72 hrs by WST8 dye reduction assay; type: cell-based
[8] = Toxicity in mouse B16-4A5 cells assessed as inhibition of cell proliferation at 1 uM in presence of 1 mM theophylline after 72 hrs by WST8 dye reduction assay; type: cell-based
[9] = Toxicity in mouse B16-4A5 cells assessed as inhibition of cell proliferation at 3 uM in presence of 1 mM theophylline after 72 hrs by WST8 dye reduction assay; type: cell-based
[10] = molecular target: T1, Tyrosinase (Agaricus bisporus); experiment: Inhibition of mushroom tyrosinase at 1 uM
[11] = molecular target: T1, Tyrosinase (Agaricus bisporus); experiment: Inhibition of mushroom tyrosinase at 3 uM

| Structure (SMILES) | inhibition at 30 µM [1] | inhibition at 72 h, 30 µM [2] | inhibition [3] | inhibition at 10 µM [4] | inhibition at 3 µM [5] | inhibition at 1 µM [6] | inhibition at 72 h, 10 µM [7] | inhibition at 72 h, 1 µM [8] | inhibition at 72 h, 3 µM [9] | inhibition [10] | inhibition [11] |
| --- | --- | --- | --- | --- | --- | --- | --- | --- | --- | --- | --- |
| COc1cc(C(=O)CCO)ccc1O | < 15.4% | < 8.8% |  |  |  |  |  |  |  |  |  |
| COc1cc(C(O)C(CO)Oc2ccc(/C=C/CO)cc2OC)ccc1O (stereo not drawn) | 52.9% | < 8.8% | inactive | 24.5% | 11.7% | 8.8% |  |  |  |  |  |
| COc1ccc([C@@H]2Oc3c(O)cc(/C=C/C=O)cc3[C@H]2CO)cc1OC | 76.8% | < 8.8% | inactive | 33.6% | 8.4% | 10.7% |  |  |  |  |  |
| COc1cc(C(=O)CO)ccc1O | < 15.4% | < 8.8% |  |  |  |  |  |  |  |  |  |
| COc1cc([C@H]2Oc3cc(O)cc(O)c3C(=O)[C@@H]2O)ccc1O | 16.2% | < 8.8% |  | 10.6% | 8% | 9.8% |  |  |  |  |  |
| COc1cc([C@@H](O)[C@@H](CO)c2ccc(O)c(OC)c2)ccc1O (relative stereo) | 27.3% | < 8.8% |  | 21.3% | 20.8% | 14.9% |  |  |  |  |  |
| COc1cc([C@H](O)[C@@H](CO)c2ccc(O)c(OC)c2)ccc1O (relative stereo) | < 15.4% | < 8.8% |  |  |  |  |  |  |  |  |  |
| COc1cc(C(=O)C(O)CO)ccc1O (single isomer, unassigned; (+)) | 25.8% | < 8.8% |  | 24% | 18.1% | 16.5% |  |  |  |  |  |
| O=Cc1ccc(O)cc1 [4-HYDROXYBENZALDEHYDE] | < 15.4% | 17.6% |  |  |  |  | -21% | -8.4% | -13.6% |  |  |
| O=C1c2c(O)cc(O)cc2O[C@@H](c2ccc(O)c(O)c2)[C@H]1O [(+)-EPITAXIFOLIN] | 13.7% | < 8.8% |  | 6.9% | 6.8% | 3.5% |  |  |  |  |  |
| O=C1c2c(O)cc(O)cc2O[C@H](c2ccc(O)c(O)c2)[C@H]1O [(+)-TAXIFOLIN] | 21.7% | < 8.8% |  | 6.7% | 3.1% | 3.5% |  |  |  |  |  |
| COc1cc(C(=O)[C@H](CO)c2ccc(O)c(OC)c2)ccc1O [(-)-EVOFOLIN B] | 23.5% | < 8.8% |  | 16.4% | 15% | 18.2% |  |  |  |  |  |
| O=C1C[C@@H](c2ccc(O)cc2)Oc2cc3oc4cc(O)c(O)cc4c3c(O)c21 [ANASTATIN A] | 65.1% | < 8.8% | inactive | 35.9% | 14.9% | 7.1% |  |  |  | 6.4% | 6.7% |
| O=C1C[C@@H](c2ccc(O)cc2)Oc2c1c(O)cc1oc3cc(O)c(O)cc3c21 [ANASTATIN B] | 40.3% | < 8.8% |  | 19.5% | 10.1% | -1.1% |  |  |  |  |  |
| COc1cc(C(C)=O)ccc1O [APOCYNIN] | 20.2% | < 8.8% |  | 18.9% | 17.5% | 16.8% |  |  |  |  |  |
| COc1cc(/C=C/C=O)ccc1O [CONIFERYL ALDEHYDE] | 39.1% | 11.5% |  | 14% | 11.6% | 10.3% | -0.5% | -4.2% | -3.2% | 1.6% | 4.2% |
| O=C1c2c(O)cc(O)cc2O[C@H](c2ccc(O)cc2)[C@H]1O [DIHYDROKAEMPFEROL] | 7% | < 8.8% |  | -5.2% | 14.4% | 6% |  |  |  |  |  |
| COc1cc(/C=C/C(=O)O)ccc1O [FERULATE] | < 15.4% | < 8.8% |  |  |  |  |  |  |  |  |  |
| COC/C=C/c1cc(O)c2c(c1)[C@@H](CO)[C@H](c1ccc(O)c(OC)c1)O2 [HIEROCHIN A] | 51.8% | < 8.8% | inactive | 32.5% | 8% | 1.9% |  |  |  |  |  |
| COc1cc([C@@H]2Oc3c(O)cc(C=O)cc3[C@H]2CO)ccc1O [HIEROCHIN C] | 44.6% | < 8.8% |  | 27.6% | 6.6% | -1% |  |  |  |  |  |
| O=c1c(O)c(-c2ccc(O)cc2)oc2cc(O)cc(O)c12 [KAEMPFEROL] | 58.1% | 16.3% | inactive | 18.6% | 7.9% | -0.6% | 13% | 3% | 10.2% |  |  |
| COc1cc(C[C@H]2CO[C@H](c3ccc(O)c(OC)c3)[C@H]2CO)ccc1O [LARICIRESINOL] | < 15.4% | < 8.8% |  |  |  |  |  |  |  |  |  |
| O=C1C[C@@H](c2ccc(O)cc2)Oc2cc(O)cc(O)c21 [NARINGENIN] | 16.9% | < 8.8% |  | 22.5% | 13.9% | 14.4% |  |  |  |  |  |
| O=C(O)c1ccc(O)cc1 [PARABEN] | < 15.4% | < 8.8% |  |  |  |  |  |  |  |  |  |
| O=C(O)c1ccc(O)c(O)c1 [PROTOCATECHUIC ACID] | < 15.4% | < 8.8% |  |  |  |  |  |  |  |  |  |
| C[C@@H]1O[C@@H](OC[C@H]2O[C@@H](Oc3c(-c4ccc(O)c(O)c4)oc4cc(O)cc(O)c4c3=O)[C@H](O)[C@@H](O)[C@@H]2O)[C@H](O)[C@H](O)[C@H]1O [RUTIN] | 5.2% | < 8.8% |  | 4.3% | 3.1% | 4.5% |  |  |  |  |  |
| COc1cc([C@@H]2Oc3c(O)cc([C@H]4Oc5cc(O)cc(O)c5C(=O)[C@@H]4O)cc3[C@H]2CO)ccc1O [SILICRISTIN A] | 17.4% | < 8.8% |  | 3.8% | 1.3% | 4.1% |  |  |  |  |  |
| COc1cc([C@H]2Oc3c(O)cc([C@H]4Oc5cc(O)cc(O)c5C(=O)[C@@H]4O)cc3[C@@H]2CO)ccc1O [SILICRISTIN B] | 1.2% | < 8.8% |  | 1.6% | -1.3% | 4.2% |  |  |  |  |  |
| COc1cc(C=O)ccc1O [VANILLIN] | < 15.4% | < 8.8% |  |  |  |  |  |  |  |  |  |
| COc1ccc(C(=O)O)cc1 [p-ANISIC ACID] | < 15.4% | < 8.8% |  |  |  |  |  |  |  |  |  |
